Measurements from patent publication US20100111838A1, “BRAIN-LOCALIZING POLYPEPTIDES COMPRISING A MULTIVALENT BINDING MOIETY AND IMPROVED METABOLIC STABILITY” (Proteus Sciences Co., Ltd, priority 2007, published 2010).
Where a SMILES comes first, the peptide text is derived from it. The star is where a group is joined. 5FAM = O=C1OC2(c3ccc(O)cc3Oc3cc(O)ccc32)c2ccc(C(=O)*)cc21

Experiment: In vitro metabolism test of fluorescein-labeled peptides in liver extract solution (HPLC)
Assay type: in vitro ADME
Details: mouse liver extract solution, 37° C.
Description: To compare the degree of improved stability observed in [C]K004K, an experiment system that uses a fluorescent pigment as a tracer instead of an isotope labeling for in vitro evaluation using a mouse liver homogenate was produced.
Add two parts of Hanks' solution to one part of mouse liver, and homogenize ↓ Centrifuge and collect supernatant ↓ Add five parts of Hanks' solution (liver extract solution) ↓ Add 5 μL of peptide to 245 μL of liver extract solution ↓
↓ Take 50 μL of sample 0, 5, 30, 60, and 120 minutes after incubation ↓ Add 200 μL, of 70% ethanol (pre-cooled at −30° C.) and then vortex ↓ Add 500 μL of chloroform (pre-cooled at −30° C.) and then vigorously vortex ↓ Centrifuge and collect supernatant ↓ Add an equivalent amount of DMF and then vortex ↓ Centrifuge and collect supernatant ↓ HPLC analysis using Co-sense
[C](Flu)-C004C: A peptide cyclized by adding C to both ends of the 004 sequence and forming a disulfide bond between them was labeled with fluorescein at its N-terminus. [C](Flu)-K004C: A peptide cyclized by adding K to the N terminus and C to the C terminus of the 004 sequence and forming a peptide bond between the N- and C-termini was labeled with fluorescein at its N terminus. [C](Flu)-K004K: A peptide cyclized by adding K to both ends of the 004 sequence and forming a peptide bond between the N- and C-termini was labeled with fluorescein at its N terminus. […]

CC(C)C[C@@H]1NC(=O)[C@H](Cc2c[nH]cn2)NC(=O)[C@H](CCCNC(=N)N)NC(=O)[C@H](C(C)C)NC(=O)[C@H](C(C)C)NC(=O)[C@H](CCCCNC(=O)c2ccc3c(c2)C(=O)OC32c3ccc(O)cc3Oc3cc(O)ccc32)NC(=O)[C@H](CCCCN)NC(=O)[C@H](CCC(N)=O)NC(=O)[C@H](CCC(N)=O)NC1=O [[C](Flu)-K004K] (cyclo(K(5FAM)VVRHLQQK))
resistance to degradation in liver extract solution (comparison): strongest resistance to degradation
